According to patent US12281149B2, “Modulators of G-protein coupled receptors” (priority 2021, dated 2025):
*1 amine or outer side, *2 acyl side, *3 side chain or, on linkers, in order; H or OH if unused. Where a SMILES comes first, the peptide text is derived from it. Side-chain parts run from the residue outwards. [ ]: non-standard residue; d: D form. The star is where a group is joined. Isobutyryl(2-(3-CN-5-F-Ph)) = CC(C)(C(=O)*)c1cc(F)cc(C#N)c1; C20 diacid = O=C(O)CCCCCCCCCCCCCCCCCCC(=O)*; X52 = CC(C)(C(=O)*)c1cc(F)cc(OC(F)(F)F)c1; γGlu = O=C(O)[C@H](CCC(=O)[*:2])N[*:1]; Gla = N[C@@H](CC(C(=O)O)C(=O)O)C(=O)O; AEEA = NCCOCCOCC(=O)O; Aib = CC(C)(N)C(=O)O; βAla = NCCC(=O)O

How the values were obtained:
Assay type in all cases: cell-based
GLP-1 receptor [1] = target: T1, GLP-1 receptor (Homo sapiens, UniProt P43220); assay: HitHunter cAMP assay, GLP-1 receptor; settings: for EC50: CHO cells stably expressing human GLP-1 receptor, cAMP accumulation, 30 min, read-out: EC50 GLP-1R; for Emax: CHO cells, cAMP, normalized to maximum signal from GLP-1 (high) and DMSO (low), read-out: Emax GLP-1R
GIP receptor [2] = target: T2, GIP receptor (Homo sapiens, UniProt P48546); assay: HitHunter cAMP assay, GIP receptor; settings: for EC50: CHO cells stably expressing GIP receptor, cAMP accumulation, 30 min, read-out: EC50 GIP-1R; for Emax: CHO cells, cAMP, normalized to maximum signal from GIP (high) and DMSO (low), read-out: Emax GIP-1R
T2 sequence (P48546 22-466): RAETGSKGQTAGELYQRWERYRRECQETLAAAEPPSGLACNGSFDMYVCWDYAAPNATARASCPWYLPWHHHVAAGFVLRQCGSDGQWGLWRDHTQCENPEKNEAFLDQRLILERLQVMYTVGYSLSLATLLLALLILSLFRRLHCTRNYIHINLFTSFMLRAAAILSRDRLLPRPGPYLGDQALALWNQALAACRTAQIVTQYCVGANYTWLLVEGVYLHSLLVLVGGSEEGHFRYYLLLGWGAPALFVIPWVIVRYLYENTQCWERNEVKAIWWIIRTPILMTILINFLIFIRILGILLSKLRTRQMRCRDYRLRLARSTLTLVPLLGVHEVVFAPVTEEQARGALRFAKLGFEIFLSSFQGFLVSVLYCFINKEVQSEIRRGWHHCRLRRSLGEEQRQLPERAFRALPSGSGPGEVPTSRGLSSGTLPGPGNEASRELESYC

GIP receptor [3] = target: T2, GIP receptor; assay: PathHunter β-arrestin assay, GIP receptor; design: host or cells: PathHunter CHO-K1 GIPR β-Arrestin Cell Line; settings: β-arrestin-2 recruitment, PathHunter CHO-K1 GIPR β-Arrestin Cell Line, 90 min at 37° C.; normalized to GIP; read-out: GIPR β Arrestin EC50
GLP-1 receptor [4] = target: T1, GLP-1 receptor; assay: PathHunter β-arrestin assay, GLP-1 receptor; design: host or cells: PathHunter CHO-K1 GLP1R β-Arrestin Cell Line; settings: β-arrestin-2 recruitment, PathHunter CHO-K1 GLP1R β-Arrestin Cell Line, 90 min at 37° C.; normalized to GLP-1; read-out: GLP-1R β Arrestin EC50

T1 sequence (P43220 24-463): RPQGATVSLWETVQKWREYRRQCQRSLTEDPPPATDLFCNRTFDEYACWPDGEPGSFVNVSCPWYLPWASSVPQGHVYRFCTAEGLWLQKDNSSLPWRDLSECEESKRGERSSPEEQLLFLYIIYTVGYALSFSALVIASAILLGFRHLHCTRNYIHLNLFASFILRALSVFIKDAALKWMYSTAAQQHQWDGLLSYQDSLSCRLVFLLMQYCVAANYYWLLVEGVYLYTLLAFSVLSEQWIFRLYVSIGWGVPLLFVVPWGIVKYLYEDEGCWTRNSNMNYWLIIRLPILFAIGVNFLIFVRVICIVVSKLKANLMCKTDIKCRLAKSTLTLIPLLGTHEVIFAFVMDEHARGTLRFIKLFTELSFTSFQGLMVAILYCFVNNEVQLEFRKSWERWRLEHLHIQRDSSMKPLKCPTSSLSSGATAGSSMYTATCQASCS

Row | SMILES | EC50 (GLP-1 receptor [1]) | Emax (GLP-1 receptor [1]) | EC50 (GIP receptor [2]) | Emax (GIP receptor [2]) | EC50 (GIP receptor [3]) | EC50 (GLP-1 receptor [4])
1 | CC[C@H](C)[C@H](NC(=O)[C@H](CC(C)C)NC(=O)[C@H](Cc1c[nH]c2ccccc12)NC(=O)[C@H](CCC(N)=O)NC(=O)[C@@H](NC(=O)[C@H](Cc1ccccc1)NC(=O)[C@H](C)NC(=O)[C@H](CCCCNC(=O)COCCOCCNC(=O)COCCOCCNC(=O)CC[C@H](NC(=O)CCCCCCCCCCCCCCCCCCC(=O)O)C(=O)O)NC(=O)[C@H](CCC(N)=O)NC(=O)[C@H](C)NC(=O)[C@@H](NC(=O)[C@H](CCCCN)NC(=O)[C@H](CC(=O)O)NC(=O)[C@H](CC(C)C)NC(=O)C(C)(C)NC(=O)[C@@H](NC(=O)[C@H](CO)NC(=O)[C@H](Cc1ccc(O)cc1)NC(=O)[C@H](CC(=O)O)NC(=O)[C@H](CO)NC(=O)[C@@H](NC(=O)[C@H](Cc1ccccc1)NC(=O)[C@@H](NC(=O)CNC(=O)[C@H](CC(=O)O)NC(=O)CCNC(=O)C(C)(C)c1cc(F)cc(C#N)c1)[C@@H](C)O)[C@@H](C)O)[C@@H](C)CC)[C@@H](C)CC)C(C)C)C(=O)N[C@@H](C)C(=O)NCC(=O)NCC(=O)N1CCC[C@H]1C(=O)N[C@@H](CO)C(=O)N[C@@H](CO)C(=O)NCC(=O)N[C@@H](C)C(=O)N1CCC[C@H]1C(=O)N1CCC[C@H]1C(=O)N1CCC[C@H]1C(=O)N[C@@H](CO)C(N)=O [Compound 108] ({Isobutyryl(2-(3-CN-5-F-Ph))-βAla}-DGTFTSDYSI[Aib]LDKIAQK([AEEA-AEEA-γGlu-C20 diacid])AFVQWLIAGGPSSGAPPPS-NH2) | < 0.1 nM | 93% | 1 to 10 nM | 95% | < 1000 nM | > 1000 nM
2 | CC[C@H](C)[C@H](NC(=O)[C@H](CC(C)C)NC(=O)[C@H](Cc1c[nH]c2ccccc12)NC(=O)[C@H](CCC(N)=O)NC(=O)[C@@H](NC(=O)[C@H](Cc1ccccc1)NC(=O)[C@H](C)NC(=O)[C@H](CCCCNC(=O)COCCOCCNC(=O)COCCOCCNC(=O)CC[C@H](NC(=O)CCCCCCCCCCCCCCCCCCC(=O)O)C(=O)O)NC(=O)[C@H](CCC(N)=O)NC(=O)[C@H](C)NC(=O)[C@@H](NC(=O)[C@H](CCCCN)NC(=O)[C@H](CC(=O)O)NC(=O)[C@H](CC(C)C)NC(=O)C(C)(C)NC(=O)[C@@H](NC(=O)[C@H](CO)NC(=O)[C@H](Cc1ccc(O)cc1)NC(=O)[C@H](CC(=O)O)NC(=O)[C@H](CO)NC(=O)[C@@H](NC(=O)[C@H](Cc1ccccc1)NC(=O)[C@@H](NC(=O)CNC(=O)[C@@H](CCC(=O)O)NC(=O)CCNC(=O)C(C)(C)c1cc(F)cc(C#N)c1)[C@@H](C)O)[C@@H](C)O)[C@@H](C)CC)[C@@H](C)CC)C(C)C)C(=O)N[C@@H](C)C(=O)NCC(=O)NCC(=O)N1CCC[C@H]1C(=O)N[C@@H](CO)C(=O)N[C@@H](CO)C(=O)NCC(=O)N[C@@H](C)C(=O)N1CCC[C@H]1C(=O)N1CCC[C@H]1C(=O)N1CCC[C@H]1C(=O)N[C@@H](CO)C(N)=O [Compound 109] ({Isobutyryl(2-(3-CN-5-F-Ph))-βAla}-[dE]GTFTSDYSI[Aib]LDKIAQK([AEEA-AEEA-γGlu-C20 diacid])AFVQWLIAGGPSSGAPPPS-NH2) | 10 to 100 nM | 82% | 10 to 100 nM | 96% | > 1000 nM | > 1000 nM
3 | CC[C@H](C)[C@H](NC(=O)[C@H](CC(C)C)NC(=O)[C@H](Cc1c[nH]c2ccccc12)NC(=O)[C@H](CCC(N)=O)NC(=O)[C@@H](NC(=O)[C@H](Cc1ccccc1)NC(=O)[C@H](C)NC(=O)[C@H](CCCCNC(=O)COCCOCCNC(=O)COCCOCCNC(=O)CC[C@H](NC(=O)CCCCCCCCCCCCCCCCCCC(=O)O)C(=O)O)NC(=O)[C@H](CCC(N)=O)NC(=O)[C@H](C)NC(=O)[C@@H](NC(=O)[C@H](CCCCN)NC(=O)[C@H](CC(=O)O)NC(=O)[C@H](CC(C)C)NC(=O)C(C)(C)NC(=O)[C@@H](NC(=O)[C@H](CO)NC(=O)[C@H](Cc1ccc(O)cc1)NC(=O)[C@H](CC(=O)O)NC(=O)[C@H](CO)NC(=O)[C@@H](NC(=O)[C@H](Cc1ccccc1)NC(=O)[C@@H](NC(=O)CNC(=O)CC[C@H](NC(=O)CCNC(=O)C(C)(C)c1cc(F)cc(C#N)c1)C(=O)O)[C@@H](C)O)[C@@H](C)O)[C@@H](C)CC)[C@@H](C)CC)C(C)C)C(=O)N[C@@H](C)C(=O)NCC(=O)NCC(=O)N1CCC[C@H]1C(=O)N[C@@H](CO)C(=O)N[C@@H](CO)C(=O)NCC(=O)N[C@@H](C)C(=O)N1CCC[C@H]1C(=O)N1CCC[C@H]1C(=O)N1CCC[C@H]1C(=O)N[C@@H](CO)C(N)=O [Compound 110] ({Isobutyryl(2-(3-CN-5-F-Ph))-βAla-γGlu}-GTFTSDYSI[Aib]LDKIAQK([AEEA-AEEA-γGlu-C20 diacid])AFVQWLIAGGPSSGAPPPS-NH2) | 100 to 1000 nM | 31% | 100 to 1000 nM | 32% | > 1000 nM | > 1000 nM
4 | CC[C@H](C)[C@H](NC(=O)[C@H](CC(C)C)NC(=O)[C@H](Cc1c[nH]c2ccccc12)NC(=O)[C@H](CCC(N)=O)NC(=O)[C@@H](NC(=O)[C@H](Cc1ccccc1)NC(=O)[C@H](C)NC(=O)[C@H](CCCCNC(=O)COCCOCCNC(=O)COCCOCCNC(=O)CC[C@H](NC(=O)CCCCCCCCCCCCCCCCCCC(=O)O)C(=O)O)NC(=O)[C@H](CCC(N)=O)NC(=O)[C@H](C)NC(=O)[C@@H](NC(=O)[C@H](CCCCN)NC(=O)[C@H](CC(=O)O)NC(=O)[C@H](CC(C)C)NC(=O)C(C)(C)NC(=O)[C@@H](NC(=O)[C@H](CO)NC(=O)[C@H](Cc1ccc(O)cc1)NC(=O)[C@H](CC(=O)O)NC(=O)[C@H](CO)NC(=O)[C@@H](NC(=O)[C@H](Cc1ccccc1)NC(=O)[C@@H](NC(=O)CNC(=O)[C@H](CC(C(=O)O)C(=O)O)NC(=O)CCNC(=O)C(C)(C)c1cc(F)cc(C#N)c1)[C@@H](C)O)[C@@H](C)O)[C@@H](C)CC)[C@@H](C)CC)C(C)C)C(=O)N[C@@H](C)C(=O)NCC(=O)NCC(=O)N1CCC[C@H]1C(=O)N[C@@H](CO)C(=O)N[C@@H](CO)C(=O)NCC(=O)N[C@@H](C)C(=O)N1CCC[C@H]1C(=O)N1CCC[C@H]1C(=O)N1CCC[C@H]1C(=O)N[C@@H](CO)C(N)=O [Compound 111] ({Isobutyryl(2-(3-CN-5-F-Ph))-βAla}-[Gla]GTFTSDYSI[Aib]LDKIAQK([AEEA-AEEA-γGlu-C20 diacid])AFVQWLIAGGPSSGAPPPS-NH2) | 1 to 10 nM | 95% | 10 to 100 nM | 105% | > 1000 nM | > 1000 nM
5 | CC[C@H](C)[C@H](NC(=O)[C@H](CC(C)C)NC(=O)[C@H](Cc1c[nH]c2ccccc12)NC(=O)[C@H](CCC(N)=O)NC(=O)[C@@H](NC(=O)[C@H](Cc1ccccc1)NC(=O)[C@H](C)NC(=O)[C@H](CCCCNC(=O)COCCOCCNC(=O)COCCOCCNC(=O)CC[C@H](NC(=O)CCCCCCCCCCCCCCCCCCC(=O)O)C(=O)O)NC(=O)[C@H](CCC(N)=O)NC(=O)[C@H](C)NC(=O)[C@@H](NC(=O)[C@H](CCCCN)NC(=O)[C@H](CC(=O)O)NC(=O)[C@H](CC(C)C)NC(=O)C(C)(C)NC(=O)[C@@H](NC(=O)[C@H](CO)NC(=O)[C@H](Cc1ccc(O)cc1)NC(=O)[C@H](CC(=O)O)NC(=O)[C@H](CO)NC(=O)[C@@H](NC(=O)[C@H](Cc1ccccc1)NC(=O)[C@@H](NC(=O)CNC(=O)[C@H](CCC(=O)O)NC(=O)CCNC(=O)C(C)(C)c1cc(F)cc(OC(F)(F)F)c1)[C@@H](C)O)[C@@H](C)O)[C@@H](C)CC)[C@@H](C)CC)C(C)C)C(=O)N[C@@H](C)C(=O)NCC(=O)NCC(=O)N1CCC[C@H]1C(=O)N[C@@H](CO)C(=O)N[C@@H](CO)C(=O)NCC(=O)N[C@@H](C)C(=O)N1CCC[C@H]1C(=O)N1CCC[C@H]1C(=O)N1CCC[C@H]1C(=O)N[C@@H](CO)C(N)=O [Compound 112] ({X52-βAla}-EGTFTSDYSI[Aib]LDKIAQK([AEEA-AEEA-γGlu-C20 diacid])AFVQWLIAGGPSSGAPPPS-NH2) | 1 to 10 nM | 115% | 100 to 1000 nM | 99% | > 1000 nM | > 1000 nM
